The values below are quoted from earlier work in patent publication US20230104874A1, “HERBAL PREPARATION FOR PREVENTION AND TREATMENT OF HELICOBACTER PYLORI INFECTION” (HerbElixa DOO BEOGRAD- NOVI BEOGRAD, priority 2020, published 2023).

The subject of one data set is H. pylori. As to conditions: literature.
In a further data set the test system is Gram negative bacteria. As to conditions: Korona-Glowniak et al. 2020.

In the case of `Cc1ccc(C(C)C)cc1O` [carvacrol], in the data set with H. pylori, the “anti-H. pylori activity in vitro” value is “bactericidal activity”.

Regarding `Cc1ccc(C(C)C)cc1` [p-cymene], the “antibacterial activity against Gram negative bacteria” value in the data set on Gram negative bacteria is listed as “no antibacterial activity”.

Regarding `Cc1ccc(C(C)C)c(O)c1` [thymol], the “anti-H. pylori activity in vitro” value with H. pylori is recorded as “high bactericidal activity”.

`CC1=CCC(C(C)C)=CC1` [γ-terpinene]: in the data set with Gram negative bacteria, the “antibacterial activity against Gram negative bacteria” value is reported as “no antibacterial activity”.
